Assay [1] concerns Huh7 (hepatocellular carcinoma) cell line. Nature of the assay: CellTiter-Glo luminescent cell viability assay, Huh7. Type of assay: cell-based, human. To be noted: Homo sapiens, Huh-7; for viability at 4 µM: Huh7, compound at 4 μM; for viability at 4 µM / viability at 10 µM: 72 h; for viability at 10 µM: Huh7, compound at 10 μM; for EC50: Huh7 cell line, 72 h incubation, CellTiter-Glo, read-out: EC50, growth inhibition of Huh7. The procedure, abridged: (§1)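 Adherent cells grow overnight, or suspension cells are seeded 1 h ahead; compound dilutions are then added and plates incubated 72 h at 37 °C. After 30 min at room temperature, CellTiter-Glo reagent is added and luminescence recorded. EC50 derives from signal relative to diluent control.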
In general terms: In ATP-based viability assays light output follows the ATP content of the culture.

Assay [2] concerns A375 (malignant melanoma) cell line. In words: CellTiter-Glo luminescent cell viability assay, A375. As to conditions: Homo sapiens, A-375; for viability at 4 µM: A375, compound at 4 μM; for viability at 4 µM / viability at 10 µM: 72 h; for viability at 10 µM: A375, compound at 10 μM; for EC50: A375 cell line, 72 h incubation, CellTiter-Glo, read-out: EC50, growth inhibition of A375. Type of assay: cell-based, human. The method in brief: (§2)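 In a 72 h viability assay, compound-treated cells were compared against matched H2O or DMSO diluent controls by luminescence, points in at least duplicate.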

Assay [3] relates to HepG2 (hepatocellular carcinoma) cell line. Nature of the assay: CellTiter-Glo luminescent cell viability assay, HepG2. Type of assay: cell-based, human. To be noted: Homo sapiens; for viability at 4 µM / viability at 10 µM: HepG2, HepG, 72 h; for viability at 4 µM: compound at 4 μM; for viability at 10 µM: compound at 10 μM; for EC50: HepG2 cell line, 72 h incubation, CellTiter-Glo, read-out: EC50, growth inhibition of HepG2. The procedure, abridged: as §1

Assay [4] deals with MOLM-14 (acute myeloid leukemia) cell line. Nature of the assay: CellTiter-Glo luminescent cell viability assay, MOLM-14. Type of assay: cell-based, human. To be noted: Homo sapiens; for viability at 4 µM: MOLM-14, compound at 4 μM; for viability at 4 µM / viability at 10 µM: 72 h; for viability at 10 µM: MOLM-14, compound at 10 μM; for EC50: MOLM-14 cell line, 72 h incubation, CellTiter-Glo, read-out: EC50, growth inhibition of MOLM-14. The method in brief:
as §1

For assay [5], the system named is 786-O (renal adenocarcinoma) cell line. In words: CellTiter-Glo luminescent cell viability assay, 786-O. As to conditions: Homo sapiens, 786-0; for viability at 4 µM / viability at 10 µM: 786-O, 72 h; for viability at 4 µM: compound at 4 μM; for viability at 10 µM: compound at 10 μM; for EC50: 786-O cell line, 72 h incubation, CellTiter-Glo, read-out: EC50, growth inhibition of 786-O. Type of assay: cell-based, human. The procedure, abridged:
as §2

In assay [6] the test system is PANC-1 (prancreatic carcinoma) cell line. In words: CellTiter-Glo luminescent cell viability assay, PANC-1. Type of assay: cell-based. As to conditions: Homo sapiens; for viability at 4 µM: PANC-1, 4 μM; for viability at 4 µM / viability at 10 µM: 72 h, % of signal of diluent-treated cultures; for viability at 10 µM: PANC-1, 10 μM; for EC50: PANC-1 cell line, 72 h incubation, CellTiter-Glo, read-out: EC50 (growth inhibition assay of PANC-1 cell line). The method in brief:
as §1

The subject of assay [7] is HCT-116 (colorectal carcinoma) cell line. In words: CellTiter-Glo luminescent cell viability assay, HCT-116. As to conditions: Homo sapiens; for viability at 4 µM: HCT-116, compound at 4 μM; for viability at 4 µM / viability at 10 µM: 72 h; for viability at 10 µM: HCT-116, compound at 10 μM; for EC50: HCT-116 cell line, 72 h incubation, CellTiter-Glo, read-out: EC50, growth inhibition of HCT-116. Type of assay: cell-based, human. The procedure, abridged:
as §2

Data on seven compounds can be found in patent US10577362B2, “Substituted 2, 4-diamino-quinoline derivatives for use in the treatment of proliferative diseases” (GENOSCIENCE PHARMA, priority 2016, dated 2020).

The structures appear in SMILES notation.

What is called viability is a read-out of living cells in per cent, often relative to untreated cells. Take `CN(C)C1CCCN(c2c(C#N)c(NCc3ccc(Cl)cc3)nc3ccccc23)C1` (stereo not drawn) [Compound 3164CN, 2-(4-chlorobenzylamino)-3-cyano-4-[3-(dimethylamino)piperidin-1-yl]quinoline]: the viability at 4 µM in assay [1] came out at 91.9%; in assay [2], 89.2%; in assay [3], 101%; in assay [4], 113%; in assay [5], 97.1%; in assay [6], 98.7%. Also, in assay [7], the viability at 4 µM came to 91.2%. Moreover, the viability at 10 µM is 51.1% in assay [1]; 39.3% in assay [2]; 52.9% in assay [3]; 74.6% in assay [4]; 64.1% in assay [5]; 69.6% in assay [6]. Moreover, in assay [7], the viability at 10 µM amounted to 38.4%.

Usually EC50 stands for the concentration giving half of the maximal effect. In the case of `CN1CCC(NC2CCCN(c3c(C#N)c(NCc4ccc(Cl)cc4)nc4ccccc34)C2)CC1` (stereo not drawn) [Compound 3162CN, 2-(4-chlorobenzylamino)-3-cyano-4-{3-[(1-methylpiperidin-4-yl)amino]piperidin-1-yl}quinoline], the viability at 4 µM is 0.5% in assay [1]; 0.4% in assay [2]; 0.3% in assay [3]; 0.5% in assay [4]; 0.5% in assay [5]; 51.6% in assay [6]. Also, the viability at 4 µM in assay [7] came to 0.3%. Also, the viability at 10 µM amounted to 0.2% in assay [1]; 0.2% in assay [2]; 0.2% in assay [3]; 0.3% in assay [4]; 0.3% in assay [5]; 0.4% in assay [6]. Moreover, the viability at 10 µM in assay [7] turned out to be 0.2%. In addition, the half-maximal effective concentration (EC50) in assay [1], in assay [2], in assay [3], in assay [4], in assay [5] and in assay [7] was 0.5 to 5 µM each time.

With `CC(C)(C)NC1CCN(c2c(C#N)c(NCc3cccnc3)nc3ccccc23)CC1` [Compound 3304CN, 2-[(pyridin-3-ylmethyl)amino]-3-cyano-4-[4-(tert-butylamino)piperidin-1-yl]quinoline], the viability at 4 µM in assay [1] worked out at 93.3%; in assay [2] it was 99.5%; in assay [3], 91.2%; in assay [4], 94.2%; in assay [5] it was 98.9%; in assay [6], 99.3%. Further, the viability at 4 µM in assay [7] is 70.6%. Besides, the viability at 10 µM in assay [1] came out at 82.8%; in assay [2] it was 74.4%; in assay [3], 83.4%; in assay [4], 81%; in assay [5], 80.7%; in assay [6], 98.7%. Further, the viability at 10 µM in assay [7] is 41.6%.

Consider `Cc1cc(Nc2nc3ccccc3c(N3CCC(NC(C)(C)C)CC3)c2C#N)ccc1F` [Compound 3250CN, 2-(3-methyl-4-fluorophenylamino)-3-cyano-4-[4-(tert-butylamino)piperidin-1-yl]quinoline], for which the viability at 4 µM in assay [1] was 67%; in assay [2] it was 0.7%; in assay [3] it was 71%; in assay [4] it was 87.5%; in assay [5], 30.3%; in assay [6], 94.7%. Besides, the viability at 4 µM in assay [7] was determined as 0.2%. In addition, the viability at 10 µM worked out at 0.5% in assay [1]; 0.3% in assay [2]; 0.5% in assay [3]; 0.6% in assay [4]; 0.4% in assay [5]; 13.1% in assay [6]. In addition, the viability at 10 µM in assay [7] was found to be 0.1%. Also, the EC50 in assay [1] was 5 to 10 µM; in assay [2] it was 0.5 to 5 µM; in assay [3], 0.5 to 5 µM; in assay [4], 5 to 10 µM; in assay [5], 0.5 to 5 µM; in assay [6], 5 to 10 µM. Also, the EC50 in assay [7] is 0.5 to 5 µM.

With `Cc1ccc(CNc2nc3ccccc3c(N3CCC(NC(C)(C)C)CC3)c2C#N)cc1` [Compound 3288CN, 2-(4-methylbenzylamino)-3-cyano-4-[4-(tert-butylamino)piperidin-1-yl]quinoline], the viability at 4 µM was determined as 0.6% in assay [1]; 0.5% in assay [2]; 0.6% in assay [3]; 62.8% in assay [4]; 1.9% in assay [5]; 63.5% in assay [6]. Also, the viability at 4 µM in assay [7] is 0.5%. Besides, the viability at 10 µM in assay [1] was 0.3%; in assay [2], 0.3%; in assay [3], 0.3%; in assay [4], 0.4%; in assay [5], 0.3%; in assay [6], 0.6%. The viability at 10 µM in assay [7] worked out at 0.2%. In addition, the EC50 in assay [1] lay in the range of 0.5 to 5 µM; in assay [2], 0.5 to 5 µM; in assay [3] it was 0.5 to 5 µM; in assay [4] it was 0.5 to 5 µM; in assay [5], 0.5 to 5 µM; in assay [6] it was 5 to 10 µM. Besides, the EC50 in assay [7] lay within 0.5 to 5 µM.

Consider `CC(C)(C)NC1CCN(c2c(C#N)c(Nc3ccccc3C(F)(F)F)nc3ccccc23)CC1` [Compound 3254CN, 2-(2-trifluoromethylphenylamino)-3-cyano-4-[4-(tert-butylamino)piperidin-1-yl]quinoline], for which the viability at 4 µM in assay [1] came to 34.2%; in assay [2], 0.4%; in assay [3], 6.9%; in assay [4], 81.4%; in assay [5], 6.3%; in assay [6], 78.4%. In addition, the viability at 4 µM in assay [7] came out at 0.3%. The viability at 10 µM in assay [1] came to 0.3%; in assay [2], 0.2%; in assay [3] it was 0.2%; in assay [4] it was 0.3%; in assay [5], 0.3%; in assay [6] it was 3%. In assay [7], the viability at 10 µM amounted to 0.2%. In addition, the EC50 in assay [1] lay in the range of 0.5 to 5 µM; in assay [2] it was 0.5 to 5 µM; in assay [3], 0.5 to 5 µM; in assay [4], 5 to 10 µM; in assay [5], 0.5 to 5 µM; in assay [6], 5 to 10 µM. Moreover, the EC50 in assay [7] lay in the range of 0.5 to 5 µM.

As to `Cc1ccc2nc(NCc3ccc(Cl)cc3)c(C#N)c(N3CCC(NC(C)(C)C)CC3)c2c1` [Compound 418CN, 2-(4-chlorobenzylamino)-3-cyano-4-[4-(tert-butylamino)piperidin-1-yl]-6-methylquinoline], the viability at 4 µM in assay [1] was found to be 50.5%; in assay [2] it was 0.3%; in assay [3] it was 5%; in assay [4], 3.8%; in assay [5] it was 0.9%; in assay [6], 79.8%. In assay [7], the viability at 4 µM was determined as 0.2%. Moreover, the viability at 10 µM in assay [1] was 0.3%; in assay [2] it was 0.3%; in assay [3] it was 0.2%; in assay [4], 0.3%; in assay [5] it was 0.2%; in assay [6] it was 0.4%. In addition, in assay [7], the viability at 10 µM is 0.2%. Further, the EC50 in assay [1] is 0.5 to 5 µM; in assay [2], 0.5 to 5 µM; in assay [3], 0.5 to 5 µM; in assay [4] it was 0.5 to 5 µM; in assay [5], 0.5 to 5 µM; in assay [6], 5 to 10 µM. Moreover, the EC50 in assay [7] was in the range of 0.5 to 5 µM.
